Laboratory results: US20230158057A1, “COMPOSITIONS AND METHODS FOR THE TREATMENT OF PAIN” (Duke University, priority 2020, published 2023)

Tests used:
[1] = system: mice with LLC bone cancer pain (BCP); assay: Syngeneic bone cancer pain (BCP) model, i.t. treatment; assay type: in vivo, mouse
Experimental: Mouse pain models: The chemotherapy-induced peripheral neuropathy (CIPN) model of chronic neuropathic pain was established as we have done previously, using 8-10-week-old CD-1 (strain #022, Charles River) mice injected with paclitaxel (2 mg/kg i.p.) every other day, with 4 injections total. The chronic constriction injury (CCI) model of neuropathic pain was also produced using 8-10-week-old CD-1 under isoflurane anesthesia. Briefly, the right sciatic nerve was exposed above the hip and two ligatures (7-0 Prolene) were placed around the nerve 1 mm apart located proximal to the trifurcation. Ligatures were loosely tied until a subtle flick of the ipsilateral hind limb was observed. CD-1 mice were also used to establish the SNI model, which was generated by tightly ligating the tibial and common peroneal nerves followed by transection and removal of a ˜3 mm portion of the nerve. The sural nerve was left intact and contact or stretching of this nerve was avoided . To establish the syngeneic bone cancer pain (BCP) model, 8-10-week-old C57BL/6J mice (strain #000664, Jackson Labs) were utilized, as the Lewis lung carcinoma cell line LLC1 (LL/2; ATCC CRL-1642) was originally generated in C57BL/6J mice. Mice were anesthetized with isoflurane and the left leg was shaved, disinfected with 10% povidone-iodine, and a 1 cm superficial incision was made to expose the patellar ligament. A 25-gauge needle was inserted at the intercondylar notch of the left femur into the femoral cavity, followed by needle replacement with a 10 μl Hamilton syringe microinjector containing a 2 μl suspension of LLC cells (2×10^5 cells) followed by a 2 μl gelatin sponge solution to enable closure of the injection site. All mice were housed and monitored in accordance with AAALAC standards and Duke IACUC guidelines that pertained to each model.
Reflexive-based sensory testing in mice: All behavioral testing in mice was performed in a specialized humidity- and light-controlled mouse behavior facility maintained at 21-24° C., with testing conducted between the hours of 8:00-16:00. Mice were habituated to the testing environment for at least 2 days prior to baseline testing. All tests were performed by an experimenter who was blinded to experimental conditions, including genotypes and drug treatment. For multi-day experiments using STING agonists, mice were tested in the same room at approximately the same time each day. To measure mechanical sensitivity, mice were confined to individual chambers with non-transparent borders on an elevated mesh rack, preventing mice from visualizing or interacting with one another during the testing period. […] We determined the 50% paw withdrawal threshold using the up-down method. […]

[2] = system: mice with intrafemoral Lewis lung carcinoma (LLC); assay: Open field test in LLC bone cancer model; assay type: in vivo, mouse; details: d14 after tumor inoculation
Experimental: Behavior tests. All the behavioral tests were conducted in a blinded manner and performed during between the hours of 9:00-16:00. Animals were habituated in a light and humidity controlled testing environment for at least 2 days prior to baseline testing. For Von Frey testing, mice were confined to individual 5×5 cm boxes placed on an elevated wire grid. A blinded experimenter stimulated their hindpaws using a series of von Frey filaments with logarithmically increasing stiffness (0.02-2.56 g, Stoelting). Each filament was applied perpendicularly to the central plantar surface. The 50% paw withdrawal threshold was determined using Dixon's up-down method. In addition, we also measured paw withdrawal frequency to repeated stimulation (10 times, with ˜1-2 minutes between each stimulation) using a subthreshold 0.16 g von Frey filament, which is a more sensitive method to detect mechanical allodynia. […] To measure locomotor function, we performed open field testing in which mice were placed in the center of a 45×45 cm chamber and locomotor activity was recorded by an overhead webcam connected to a laptop computer, and animals' movements were automatically tracked for 30 minutes using ANY-Maze. The total distance traveled and mean speed during the 30-minute period were analyzed.

tumor-bearing femora = assay: Bone fractures of tumor-bearing femora on d17 after LLC inoculation; assay type: in vivo, mouse; details: vehicle 87.5%
Experimental: Development and progression of cancer-induced osteolytic bone destruction frequently leads to bone fracture, which is an important component of SREs in patients with bone metastasis and is associated with decreased overall survival. On d17 after LLC inoculation, mice were euthanized and the tumor bearing femora were collected and the distal tumor-bearing femur where bone destruction occurs was analyzed.

[3] = system: bone marrow-derived macrophages (BMDM); assay: In vitro osteoclastogenesis from bone marrow-derived macrophages (BMDM), TRAP staining; assay type: cell-based, mouse; details: 30 μM, WT vs STING^gt/gt or Ifnar1^−/−
Experimental: In vitro induction of osteoclastogenesis and TRAP staining. For in vitro drug treatment, the RAW 264.7 cells were incubated with 35 ng/ml RANKL for six days. Isolated bone marrow cells were cultured overnight in α-MEM media containing 10% fetal bovine serum and 1% antibiotic-antimycotic solution. The suspended cells were collected and incubated with 20 ng/ml MCSF for 3 days to obtain bone marrow-derived macrophage (BMDM). The attached cells were further activated by 35 ng/ml RANKL and 20 ng/ml MCSF. Drug treatment was performed in tandem with RANKL. Culture medium and co-cultured reagents were changed every 3 days. After 6 or 7 days of incubation, the cells were fixed by 4% PFA and stained with warm TRAP staining solution (TRAP kit, Sigma-Aldrich, SLBW4002) for 10-30 min at 37° C.

Row | SMILES | cold allodynia [1] | tumor burden [1] | open field distance and speed of movement [2] | mice with distal bone fractures (tumor-bearing femora) [%] | osteoclast formation from BMDM [3]
1 | Nc1ncnc2c1ncn2[C@@H]1O[C@@H]2COP(=O)([S-])O[C@@H]3[C@H](O)[C@@H](COP([O-])(=S)O[C@H]2[C@H]1O)O[C@H]3n1cnc2c(N)ncnc21.[Na+].[Na+] (stereo partly drawn) [ADU-S100, (2′-5′)-[P(R)]-5′-O-[(R)-hydroxymercaptophosphinyl]-P-thioadenylyl-adenosine cyclic dinucleotide] | suppressed cold allodynia | tumor burden was unaffected | increased overall distance of movement and increased speed of movement | 0 | could significantly inhibit osteoclast formation from BMDM from WT mice but not from STING^gt/gt or Ifnar1^−/− mice
2 | Cc1ccc2c(=O)c3cccc(CC(=O)O)c3oc2c1C [DMXAA, 2-(5,6-dimethyl-9-oxo-9H-xanthen-4-yl)acetic acid] | suppressed cold allodynia | tumor burden was unaffected | greater overall distance of movement and increased speed of movement | 12.5 | could significantly inhibit osteoclast formation from BMDM from WT mice but not from STING^gt/gt or Ifnar1^−/− mice
